Read-outs that look alike come from different tables or passages of the source.
Assays:
[1] = target: Recombinant human Bcl-2 protein (Homo sapiens (Human), UniProt P10415); test: Bcl-2 TR-FRET Assay; assay type: binding
Procedure, shortened: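 Compounds were pre-incubated with 0.05 nM recombinant Bcl-2 for 0.5 h at room temperature in potassium phosphate buffer, pH 7.5. FITC-Bak peptide (0.5 nM) and Tb-cryptate antibody were then added for 1 h. Percent inhibition from TR-FRET signals gave IC50 values.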

[2] = target: recombinant human Bcl-2-G101V protein (Homo sapiens (Human), UniProt P10415, G101V); test: Bcl-2-G101V TR-FRET Assay; assay type: binding; conditions: Bcl-2 G101V mutant, TR-FRET; read-out: Biochemical assay (IC50, nM) Bcl-2 G101V
Procedure, shortened: (§1)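 Ex337/em490 & 520 nm TR-FRET; % inhibition of Bcl-2-G101V–ligand interaction from 490:520 ratio vs. increasing compound conc.; IC50 by 4-parameter logistic fit.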

[3] = test system: recombinant human Bcl-2-G101V protein; test: Bcl-2-G101V TR-FRET Assay; assay type: binding; conditions: ratio of biochemical IC50 Bcl-2 G101V / Bcl-2 WT
Procedure, shortened: as §1

[4] = test system: RS4;11 (BCL-2 dependent acute lymphoblastic leukemia cell line); test: RS4;11 Cell Proliferation Assay; assay type: cell-based; conditions: Homo sapiens, RS4-11, RS4;11 cells, read-out: Cellular proliferation assay (IC50, nM) RS4
Procedure, shortened: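 RS4;11 cells, 50,000 per well in RPMI-1640 with 10% FBS, treated 48 h at 37 °C with a 10-point dilution series topping at 1 μM. Viability read by CellTiter-Glo ATP luminescence; mean IC50 reported.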

[5] = test system: BCL-2 G101V knock-in cell line H96 (derive from RS4;11); test: Bcl 2-G101V Knock-In RS4;11 Cell Proliferation Assay; assay type: cell-based; conditions: Homo sapiens, RS4;11 Bcl-2 G101V knock-in clone H96, 48 hrs, CellTiter-GLO, read-out: Cellular proliferation assay (IC50, nM) RS4
Procedure, shortened: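 H96, a CRISPR-generated RS4;11 clone carrying BCL2-G101V knock-in (WES/RNA-seq validated), seeded 50,000 per well and exposed 48 h at 37 °C to 10-point dilutions topping at 1 or 10 μM. Viability by CellTiter-Glo luminescence; mean IC50.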

[6] = target: recombinant human Bcl-2 D103Y protein (Homo sapiens (Human), UniProt P10415, D103Y); test: Bcl-2-D103Y Biochemical Assay (TR-FRET); assay type: binding; conditions: for IC50: TR-FRET, FITC labeled Bak peptide; for Ratio of Bcl-2 D103Y/Bcl-2 WT: ratio of IC50
Procedure, shortened: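 Recombinant human Bcl-2 D103Y binding to its ligand measured by TR-FRET (ex 337 nm, em 490/520 nm) with increasing compound concentrations. Percent inhibition from the 490/520 nm ratio; IC50 from four-parameter logistic fit.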

[7] = Bcl-2 wild type, TR-FRET, read-out: Biochemical assay (IC50, nM) Bcl-2 WT
[8] = wild type Bcl-2, unit inferred, read-out: Bcl-2 WT

| SMILES | IC50 [1, 7] | IC50 [1, 8] | IC50 [2] | Ratio of Bcl-2 G101V/WT [3] | IC50 [4] | IC50 [5] | IC50 [6] | Ratio of Bcl-2 D103Y/Bcl-2 WT [6] |
| --- | --- | --- | --- | --- | --- | --- | --- | --- |
| COc1ccccc1CN1CCN(C2CC3(CCN(c4ccc(C(=O)NS(=O)(=O)c5ccc(NC[C@H]6CC[C@](C)(O)CC6)c([N+](=O)[O-])c5)c(Oc5cnc6[nH]ccc6c5)c4)CC3)C2)C(c2ccccc2C(C)C)C1 (stereo partly drawn) [Example 47, 2-((1H-pyrrolo[2,3-b]pyridin-5-yl)oxy)-N-((4-((((1r,4r)-4-hydroxy-4-methylcyclohexyl)methyl)amino)-3-nitrophenyl)sulfonyl)-4-(2-(2-(2-isopropylphenyl)-4-(2-methoxybenzyl)piperazin-1-yl)-7-azaspiro[3.5]nonan-7-yl) benzamide] | 0.12 nM | 0.12 nM | 0.53 nM | 4.4 | 1 nM | 5.33 nM | 0.4 nM | 3.3 |
| COc1cc(CN2CCN(C3CC4(C3)CN(c3ccc(C(=O)NS(=O)(=O)c5ccc(NC[C@H]6CC[C@](C)(O)CC6)c([N+](=O)[O-])c5)c(Oc5cnc6[nH]ccc6c5)c3)C4)[C@H](c3ccccc3C(C)C)C2)ccc1OC1CC1 [Example 343, 2-((1H-pyrrolo[2,3-b]pyridin-5-yl)oxy)-4-(6-((R)-4-(4-cyclopropoxy-3-methoxybenzyl)-2-(2-isopropylphenyl)piperazin-1-yl)-2-azaspiro[3.3]heptan-2-yl)-N-((4-((((1r,4r)-4-hydroxy-4-methylcyclohexyl)methyl)amino)-3-nitrophenyl)sulfonyl)benzamide] | 0.11 nM | 0.11 nM | 0.3 nM | 2.7 | 0.11 nM | 0.25 nM | 0.09 nM | 0.8 |
| COc1ccc(C(=O)N2CCN(C3CC4(C3)CN(c3ccc(C(=O)NS(=O)(=O)c5ccc(NC[C@H]6CC[C@](C)(O)CC6)c([N+](=O)[O-])c5)c(Oc5cnc6[nH]cc(F)c6c5)c3)C4)[C@H](c3ccccc3C(C)C)C2)cc1 [Example 353] | 0.077 nM | 0.07 nM | 0.25 nM | 3.3 | 0.2 nM | 0.64 nM | 0.12 nM | 1.5 |
| COc1ccc(CN2CCN(C3CC4(CCN(c5ccc(C(=O)NS(=O)(=O)c6ccc(NC[C@H]7CC[C@](C)(O)CC7)c([N+](=O)[O-])c6)c(Oc6cnc7[nH]ccc7c6)c5)CC4)C3)C(c3ccccc3C(C)C)C2)nc1OC (stereo partly drawn) [Example 194, 2-((1H-pyrrolo[2,3-b]pyridin-5-yl)oxy)-4-(2-(4-((5,6-dimethoxypyridin-2-yl)methyl)-2-(2-isopropylphenyl)piperazin-1-yl)-7-azaspiro[3.5]nonan-7-yl)-N-((4-((((1r,4r)-4-hydroxy-4-methylcyclohexyl)methyl)amino)-3-nitrophenyl)sulfonyl)benzamide] | 0.051 nM | 0.051 nM | 0.16 nM | 3.1 | 0.3 nM | 0.82 nM | 0.072 nM | 1.4 |
| COc1ccc(CN2CCN(C3CC4(CCN(c5ccc(C(=O)NS(=O)(=O)c6ccc(NC[C@H]7CC[C@](C)(O)CC7)c([N+](=O)[O-])c6)c(Oc6cnc7[nH]ccc7c6)c5)CC4)C3)[C@H](c3ccccc3C(C)C)C2)c(OC)c1 (single isomer, unassigned) [Example 48a, 2-((1H-pyrrolo[2,3-b]pyridin-5-yl)oxy)-4-(2-((R or S)-4-(2,4-dimethoxybenzyl)-2-(2-isopropylphenyl)piperazin-1-yl)-7-azaspiro[3.5]nonan-7-yl)-N-((4-((((1r,4r)-4-hydroxy-4-methylcyclohexyl)methyl)amino)-3-nitrophenyl)sulfonyl)benzamide] | 0.045 nM | 0.045 nM | 0.21 nM | 4.6 | 0.16 nM | 0.81 nM | 0.1 nM | 2.3 |
| CC(C)c1ccccc1[C@@H]1CN(Cc2ccc(F)c(F)c2)CCN1C1CC2(C1)CN(c1ccc(C(=O)NS(=O)(=O)c3ccc(NC[C@H]4CC[C@](C)(O)CC4)c([N+](=O)[O-])c3)c(Oc3cnc4[nH]cc(F)c4c3)c1)C2 [Example 229, 4-(6-((R)-4-(3,4-difluorobenzyl)-2-(2-isopropylphenyl)piperazin-1-yl)-2-azaspiro[3.3]heptan-2-yl)-2-((3-fluoro-1H-pyrrolo[2,3-b]pyridin-5-yl)oxy)-N-((4-((((1r,4r)-4-hydroxy-4-methylcyclohexyl)methyl)amino)-3-nitrophenyl)sulfonyl) benzamide] | 0.38 nM | 0.38 nM | 0.96 nM | 2.5 | 0.12 nM | 0.53 nM | 0.45 nM | 1.2 |
| COc1ccc(CN2CCN(C3CC4(CCN(c5ccc(C(=O)NS(=O)(=O)c6ccc(NC[C@H]7CC[C@](C)(O)CC7)c([N+](=O)[O-])c6)c(Oc6cc7c(F)c[nH]c7nc6C)c5)CC4)C3)[C@H](c3ccccc3C(C)C)C2)cc1 [Example 125, 2-((3-fluoro-6-methyl-1H-pyrrolo [2,3-b]pyridin-5-yl)oxy)-N-((4-((((1r,4r)-4-hydroxy-4-methylcyclohexyl)methyl)amino)-3-nitrophenyl)sulfonyl)-4-(2-((R)-2-(2-isopropylphenyl)-4-(4-methoxybenzyl)piperazin-1-yl)-7-azaspiro[3.5]nonan-7-yl) benzamide] | 0.3 nM | 0.3 nM | 0.71 nM | 2.4 | 0.15 nM | 0.68 nM | 0.33 nM | 1.1 |
| CC(C)c1ccccc1C1CN(C2COC2)CCN1C1CC2(CCN(c3ccc(C(=O)NS(=O)(=O)c4ccc(NC[C@H]5CC[C@](C)(O)CC5)c([N+](=O)[O-])c4)c(Oc4cnc5[nH]ccc5c4)c3)CC2)C1 (stereo partly drawn) [Example 6, 2-((1H-pyrrolo[2,3-b]pyridin-5-yl)oxy)-N-((4-((((1r,4r)-4-hydroxy-4-methylcyclohexyl)methyl)amino)-3-nitrophenyl)sulfonyl)-4-(2-(2-(2-isopropylphenyl)-4-(oxetan-3-yl)piperazin-1-yl)-7-azaspiro[3.5]nonan-7-yl)benzamide] | 0.013 nM | 0.013 nM | 0.32 nM | 24.6 | 0.53 nM | 4.83 nM | 0.18 nM | 24 |
| COc1cc(CN2CCN(C3CC4(C3)CN(c3ccc(C(=O)NS(=O)(=O)c5ccc(NC[C@H]6CC[C@](C)(O)CC6)c([N+](=O)[O-])c5)c(Oc5cnc6[nH]ccc6c5)c3)C4)[C@H](c3ccccc3C(C)C)C2)cc2ccoc12 [Example 307, 2-((1H-pyrrolo[2,3-b]pyridin-5-yl)oxy)-N-((4-((((1r,4r)-4-hydroxy-4-methylcyclohexyl)methyl)amino)-3-nitrophenyl)sulfonyl)-4-(6-((R)-2-(2-isopropylphenyl)-4-((7-methoxybenzofuran-5-yl)methyl)piperazin-1-yl)-2-azaspiro[3.3]heptan-2-yl)benzamide] | 0.17 nM | 0.17 nM | 0.43 nM | 2.5 | 0.11 nM | 0.17 nM | 0.18 nM | 1.1 |
